Reference: ChEMBL document CHEMBL3608278 (J Med Chem, 2015)

Tests used:
[1] = target: T1, Potassium voltage-gated channel subfamily A member 3 (Homo sapiens, UniProt P22001); type: cell-based, CHO-K1
[2] = target: T1, Potassium voltage-gated channel subfamily A member 3; assay: cell-based; set-up: species or system Blood
[3] = target: T1, Potassium voltage-gated channel subfamily A member 3; set-up: species or system Blood

T1 sequence (P22001 whole entry): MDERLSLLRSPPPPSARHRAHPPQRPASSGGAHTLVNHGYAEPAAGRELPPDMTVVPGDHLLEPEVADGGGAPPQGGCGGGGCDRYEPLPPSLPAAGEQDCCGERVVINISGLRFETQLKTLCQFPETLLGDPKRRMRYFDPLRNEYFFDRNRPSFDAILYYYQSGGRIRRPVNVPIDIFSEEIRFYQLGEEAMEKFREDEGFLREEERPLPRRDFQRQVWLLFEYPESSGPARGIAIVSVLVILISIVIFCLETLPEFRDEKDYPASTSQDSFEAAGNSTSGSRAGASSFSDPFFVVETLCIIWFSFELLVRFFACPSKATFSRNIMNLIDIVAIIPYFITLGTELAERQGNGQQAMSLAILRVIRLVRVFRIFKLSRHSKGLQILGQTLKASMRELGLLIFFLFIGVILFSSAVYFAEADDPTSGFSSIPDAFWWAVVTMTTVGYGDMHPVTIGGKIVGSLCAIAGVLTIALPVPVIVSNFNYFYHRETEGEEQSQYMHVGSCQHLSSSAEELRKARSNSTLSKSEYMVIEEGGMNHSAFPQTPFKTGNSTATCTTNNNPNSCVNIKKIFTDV

**Q.** For `CC[C@H](C)[C@@H]1NC(=O)[C@@H](NC(=O)[C@H](CO)NC(=O)[C@H](C)N)CSSC[C@@H](C(=O)O)NC(=O)[C@H]([C@@H](C)O)NC(=O)CNC(=O)[C@@H]2CSSC[C@@H]3NC(=O)[C@H](CCC(N)=O)NC(=O)[C@H](Cc4ccccc4)NC(=O)[C@H](C)NC(=O)[C@H]([C@@H](C)O)NC(=O)[C@H](CSSC[C@H](NC(=O)[C@H](Cc4ccccc4)NC(=O)[C@H](CO)NC(=O)[C@H](CC(C)C)NC(=O)[C@H](CCCNC(=N)N)NC(=O)[C@H](Cc4ccc(O)cc4)NC(=O)[C@H](CCCCN)NC(=O)[C@H](CCSC)NC(=O)[C@H](CO)NC(=O)[C@H](Cc4cnc[nH]4)NC(=O)[C@H](CCCCN)NC3=O)C(=O)N[C@@H](CCCNC(=N)N)C(=O)N[C@@H](CCCCN)C(=O)N[C@@H]([C@@H](C)O)C(=O)N2)NC(=O)[C@H](CCCNC(=N)N)NC(=O)[C@H](CO)NC(=O)[C@H](CCCCN)NC(=O)[C@@H]2CCCN2C(=O)[C@H]([C@@H](C)CC)NC(=O)[C@H]([C@@H](C)O)NC(=O)[C@H](CC(=O)O)NC1=O`, which IC50 [1] is on record?
**A.** 0.166 nM

**Q.** And the IC50 [2]?
**A.** 0.061 nM

**Q.** With `CC[C@H](C)[C@@H]1NC(=O)[C@@H](NC(=O)[C@H](CO)NC(=O)[C@@H](N)CCCNC(=N)N)CSSC[C@@H](C(=O)O)NC(=O)[C@H]([C@@H](C)O)NC(=O)CNC(=O)[C@@H]2CSSC[C@@H]3NC(=O)[C@H](CCC(N)=O)NC(=O)[C@H](Cc4ccccc4)NC(=O)[C@H](C)NC(=O)[C@H]([C@@H](C)O)NC(=O)[C@H](CSSC[C@H](NC(=O)[C@H](Cc4ccccc4)NC(=O)[C@H](CO)NC(=O)[C@H](CC(C)C)NC(=O)[C@H](CCCNC(=N)N)NC(=O)[C@H](Cc4ccc(O)cc4)NC(=O)[C@H](CCCCN)NC(=O)[C@H](CCSC)NC(=O)[C@H](CO)NC(=O)[C@H](Cc4cnc[nH]4)NC(=O)[C@H](CCCCN)NC3=O)C(=O)N[C@@H](CCCNC(=N)N)C(=O)N[C@@H](CCCNC(=N)N)C(=O)N[C@@H]([C@@H](C)O)C(=O)N2)NC(=O)[C@H](CCCNC(=N)N)NC(=O)[C@H](CO)NC(=O)[C@H](CCCCN)NC(=O)[C@@H]2CCCN2C(=O)[C@H]([C@@H](C)CC)NC(=O)[C@H]([C@@H](C)O)NC(=O)[C@H](CC(=O)O)NC1=O` as the compound, how does the IC50 [3] read?
**A.** 0.058 nM

**Q.** And the IC50 [1]?
**A.** 0.038 nM

**Q.** Which results are given for `CC[C@H](C)[C@@H]1NC(=O)[C@@H](NC(=O)[C@H](CO)NC(=O)[C@@H](N)CCCNC(=N)N)CSSC[C@@H](C(=O)O)NC(=O)[C@H]([C@@H](C)O)NC(=O)CNC(=O)[C@@H]2CSSC[C@@H]3NC(=O)[C@H](CCC(N)=O)NC(=O)[C@H](Cc4ccccc4)NC(=O)[C@H](C)NC(=O)[C@H]([C@@H](C)O)NC(=O)[C@H](CSSC[C@H](NC(=O)[C@H](Cc4ccccc4)NC(=O)[C@H](CO)NC(=O)[C@H](CC(C)C)NC(=O)[C@H](CCCNC(=N)N)NC(=O)[C@H](Cc4ccc(O)cc4)NC(=O)[C@H](CCCCN)NC(=O)[C@H](CCSC)NC(=O)[C@H](CO)NC(=O)[C@H](Cc4cnc[nH]4)NC(=O)[C@H](CCCCN)NC3=O)C(=O)N[C@@H](CCCNC(=N)N)C(=O)N[C@@H](CCCCN)C(=O)N[C@@H]([C@@H](C)O)C(=O)N2)NC(=O)[C@H](CCCNC(=N)N)NC(=O)[C@H](CO)NC(=O)[C@H](CCCNC(=N)N)NC(=O)[C@@H]2CCCN2C(=O)[C@H]([C@@H](C)CC)NC(=O)[C@H]([C@@H](C)O)NC(=O)[C@H](CC(=O)O)NC1=O`?
**A.** IC50 [3]: 0.083 nM; IC50 [2]: 0.076 nM

**Q.** Which results are given for `CC[C@H](C)[C@@H]1NC(=O)[C@@H](NC(=O)[C@H](CCCNC(=N)N)NC(=O)[C@@H](N)CCCNC(=N)N)CSSC[C@@H](C(=O)O)NC(=O)[C@H]([C@@H](C)O)NC(=O)CNC(=O)[C@@H]2CSSC[C@@H]3NC(=O)[C@H](CCC(N)=O)NC(=O)[C@H](Cc4ccccc4)NC(=O)[C@H](C)NC(=O)[C@H]([C@@H](C)O)NC(=O)[C@H](CSSC[C@H](NC(=O)[C@H](Cc4ccccc4)NC(=O)[C@H](CO)NC(=O)[C@H](CC(C)C)NC(=O)[C@H](CCCNC(=N)N)NC(=O)[C@H](Cc4ccc(O)cc4)NC(=O)[C@H](CCCCN)NC(=O)[C@H](CCSC)NC(=O)[C@H](CO)NC(=O)[C@H](Cc4cnc[nH]4)NC(=O)[C@H](CCCCN)NC3=O)C(=O)N[C@@H](CCCNC(=N)N)C(=O)N[C@@H](CCCCN)C(=O)N[C@@H]([C@@H](C)O)C(=O)N2)NC(=O)[C@H](CCCNC(=N)N)NC(=O)[C@H](CO)NC(=O)[C@H](CCCCN)NC(=O)[C@@H]2CCCN2C(=O)[C@H]([C@@H](C)CC)NC(=O)[C@H]([C@@H](C)O)NC(=O)[C@H](CC(=O)O)NC1=O`?
**A.** IC50 [3]: 0.116 nM; IC50 [2]: 0.087 nM

**Q.** With `CC[C@H](C)[C@@H]1NC(=O)[C@@H](NC(=O)[C@H](CO)NC(=O)[C@@H](N)CCCNC(=N)N)CSSC[C@@H](C(=O)O)NC(=O)[C@H]([C@@H](C)O)NC(=O)CNC(=O)[C@@H]2CSSC[C@@H]3NC(=O)[C@H](CCC(N)=O)NC(=O)[C@H](Cc4ccccc4)NC(=O)[C@H](C)NC(=O)[C@H]([C@@H](C)O)NC(=O)[C@H](CSSC[C@H](NC(=O)[C@H](Cc4ccccc4)NC(=O)[C@H](CO)NC(=O)[C@H](CCCNC(=N)N)NC(=O)[C@H](CCCNC(=N)N)NC(=O)[C@H](Cc4ccc(O)cc4)NC(=O)[C@H](CCCCN)NC(=O)[C@H](CCSC)NC(=O)[C@H](CO)NC(=O)[C@H](Cc4cnc[nH]4)NC(=O)[C@H](CCCCN)NC3=O)C(=O)N[C@@H](CCCNC(=N)N)C(=O)N[C@@H](CCCCN)C(=O)N[C@@H]([C@@H](C)O)C(=O)N2)NC(=O)[C@H](CCCNC(=N)N)NC(=O)[C@H](CO)NC(=O)[C@H](CCCCN)NC(=O)[C@@H]2CCCN2C(=O)[C@H]([C@@H](C)CC)NC(=O)[C@H]([C@@H](C)O)NC(=O)[C@H](CC(=O)O)NC1=O` as the compound, how does the IC50 [3] read?
**A.** 0.194 nM

**Q.** What about the IC50 [2] of the same compound?
**A.** 0.137 nM

**Q.** Which results are given for `CC[C@H](C)[C@@H]1NC(=O)[C@@H](NC(=O)[C@H](CO)NC(=O)[C@@H](N)CCCNC(=N)N)CSSC[C@@H](C(=O)O)NC(=O)[C@H]([C@@H](C)O)NC(=O)CNC(=O)[C@@H]2CSSC[C@@H]3NC(=O)[C@H](CCC(N)=O)NC(=O)[C@H](Cc4ccccc4)NC(=O)[C@H](C)NC(=O)[C@H]([C@@H](C)O)NC(=O)[C@H](CSSC[C@H](NC(=O)[C@H](Cc4ccccc4)NC(=O)[C@H](CO)NC(=O)[C@H](CC(C)C)NC(=O)[C@H](CCCNC(=N)N)NC(=O)[C@H](Cc4ccc(O)cc4)NC(=O)[C@H](CCCCN)NC(=O)[C@H](CCSC)NC(=O)[C@H](CO)NC(=O)[C@H](Cc4cnc[nH]4)NC(=O)[C@H](CCCCN)NC3=O)C(=O)N[C@@H](CCCNC(=N)N)C(=O)N[C@@H](CCCCN)C(=O)N[C@@H]([C@@H](C)O)C(=O)N2)NC(=O)[C@H](Cc2cccc3ccccc23)NC(=O)[C@H](CO)NC(=O)[C@H](CCCCN)NC(=O)[C@@H]2CCCN2C(=O)[C@H]([C@@H](C)CC)NC(=O)[C@H]([C@@H](C)O)NC(=O)[C@H](CC(=O)O)NC1=O`?
**A.** IC50 [3]: 1.65 nM; IC50 [2]: 1.14 nM

**Q.** For `CC[C@H](C)[C@@H]1NC(=O)[C@@H](NC(=O)[C@H](CO)NC(=O)[C@@H](N)CCCNC(=N)N)CSSC[C@@H](C(=O)O)NC(=O)[C@H]([C@@H](C)O)NC(=O)CNC(=O)[C@@H]2CSSC[C@@H]3NC(=O)[C@H](CCC(N)=O)NC(=O)[C@H](Cc4ccccc4)NC(=O)[C@H](C)NC(=O)[C@H]([C@@H](C)O)NC(=O)[C@H](CSSC[C@H](NC(=O)[C@H](Cc4ccccc4)NC(=O)[C@H](CO)NC(=O)[C@H](C)NC(=O)[C@H](CCCNC(=N)N)NC(=O)[C@H](Cc4ccc(O)cc4)NC(=O)[C@H](CCCCN)NC(=O)[C@H](CCSC)NC(=O)[C@H](CO)NC(=O)[C@H](Cc4cnc[nH]4)NC(=O)[C@H](CCCCN)NC3=O)C(=O)N[C@@H](CCCNC(=N)N)C(=O)N[C@@H](CCCCN)C(=O)N[C@@H]([C@@H](C)O)C(=O)N2)NC(=O)[C@H](CCCNC(=N)N)NC(=O)[C@H](CO)NC(=O)[C@H](CCCCN)NC(=O)[C@@H]2CCCN2C(=O)[C@H]([C@@H](C)CC)NC(=O)[C@H]([C@@H](C)O)NC(=O)[C@H](CC(=O)O)NC1=O`, which IC50 [3] is on record?
**A.** 0.641 nM

**Q.** And the IC50 [2]?
**A.** 0.199 nM

**Q.** What does the source list for `CC[C@H](C)[C@@H]1NC(=O)[C@@H](NC(=O)[C@H](CO)NC(=O)[C@@H](N)CCCNC(=N)N)CSSC[C@@H](C(=O)O)NC(=O)[C@H]([C@@H](C)O)NC(=O)CNC(=O)[C@@H]2CSSC[C@@H]3NC(=O)[C@H](CCC(N)=O)NC(=O)[C@H](Cc4ccccc4)NC(=O)[C@H](C)NC(=O)[C@H]([C@@H](C)O)NC(=O)[C@H](CSSC[C@H](NC(=O)[C@H](Cc4ccccc4)NC(=O)[C@H](CO)NC(=O)[C@H](CC(C)C)NC(=O)[C@H](CCCNC(=N)N)NC(=O)[C@H](Cc4ccc(O)cc4)NC(=O)[C@H](CCCCN)NC(=O)[C@H](CCSC)NC(=O)[C@H](CO)NC(=O)[C@H](Cc4cnc[nH]4)NC(=O)[C@H](CCCCN)NC3=O)C(=O)N[C@@H](CCCNC(=N)N)C(=O)N[C@@H](CCCCN)C(=O)N[C@@H]([C@@H](C)O)C(=O)N2)NC(=O)[C@H](CCCNC(=N)N)NC(=O)[C@H](Cc2cccc3ccccc23)NC(=O)[C@H](CCCCN)NC(=O)[C@@H]2CCCN2C(=O)[C@H]([C@@H](C)CC)NC(=O)[C@H]([C@@H](C)O)NC(=O)[C@H](CC(=O)O)NC1=O`?
**A.** IC50 [3]: 0.255 nM; IC50 [1]: 0.216 nM

**Q.** Which IC50 [3] does the source give for `CC[C@H](C)[C@@H]1NC(=O)[C@@H](NC(=O)[C@H](CO)NC(=O)[C@@H](N)CCCNC(=N)N)CSSC[C@@H](C(=O)N[C@@H](C)C(=O)O)NC(=O)[C@H]([C@@H](C)O)NC(=O)CNC(=O)[C@@H]2CSSC[C@@H]3NC(=O)[C@H](CCCCN)NC(=O)[C@H](Cc4ccccc4)NC(=O)[C@H](C)NC(=O)[C@H]([C@@H](C)O)NC(=O)[C@H](CSSC[C@H](NC(=O)[C@H](Cc4ccccc4)NC(=O)[C@H](CO)NC(=O)[C@H](CC(C)C)NC(=O)[C@H](CCCNC(=N)N)NC(=O)[C@H](Cc4ccc(O)cc4)NC(=O)[C@H](CCCCN)NC(=O)[C@H](CCSC)NC(=O)[C@H](CO)NC(=O)[C@H](Cc4cnc[nH]4)NC(=O)[C@H](CCCCN)NC3=O)C(=O)N[C@@H](CCCNC(=N)N)C(=O)N[C@@H](CCCCN)C(=O)N[C@@H]([C@@H](C)O)C(=O)N2)NC(=O)[C@H](CCCNC(=N)N)NC(=O)[C@H](CO)NC(=O)[C@H](CCCCN)NC(=O)[C@@H]2CCCN2C(=O)[C@H]([C@@H](C)CC)NC(=O)[C@H]([C@@H](C)O)NC(=O)[C@H](CC(=O)O)NC1=O` here?
**A.** 0.266 nM

**Q.** And the IC50 [2]?
**A.** 0.138 nM
